In the NIST ThermoML archive (doi:10.1016/j.jct.2009.04.015):
Where “and” joins values, the source holds several entries; their conditions need not be identical. Equal values may be shown once.

Conditions: Crystal, Calculated from knudsen effusion weight loss

Cc1cc(O)ccc1O [1,4-benzenediol, 2-methyl-]
Conditions | vapor or sublimation pressure
325.21 K | 0.000147 kPa and 0.000144 kPa and 0.000138 kPa
327.15 K | 0.000189 kPa and 0.000182 kPa and 0.000173 kPa
329.11 K | 0.000239 kPa and 0.000229 kPa and 0.000226 kPa
331.19 K | 0.000292 kPa and 0.000277 kPa and 0.000298 kPa
333.14 K | 0.000375 kPa and 0.000361 kPa and 0.000348 kPa
335.11 K | 0.000481 kPa and 0.000462 kPa and 0.000448 kPa
337.2 K | 0.00061 kPa and 0.000607 kPa and 0.000569 kPa
339.14 K | 0.000751 kPa and 0.000731 kPa and 0.000704 kPa
341.12 K | 0.000957 kPa and 0.000916 kPa and 0.00089 kPa

Cc1ccc(O)cc1O [1,3-benzenediol, 4-methyl-]
Conditions | vapor or sublimation pressure
317.2 K | 0.000134 kPa and 0.000129 kPa and 0.000128 kPa
319.22 K | 0.000175 kPa and 0.00017 kPa and 0.000166 kPa
321.11 K | 0.00022 kPa and 0.000215 kPa and 0.000211 kPa
323.21 K | 0.000266 kPa and 0.000262 kPa and 0.000282 kPa
325.23 K | 0.000361 kPa and 0.000344 kPa and 0.000336 kPa
327.13 K | 0.000451 kPa and 0.000438 kPa and 0.000432 kPa
329.21 K | 0.000572 kPa and 0.000562 kPa and 0.000561 kPa
331.21 K | 0.000742 kPa and 0.000724 kPa and 0.000719 kPa
333.12 K | 0.000933 kPa and 0.000916 kPa and 0.000886 kPa

Cc1c(O)cccc1O [1,3-dihydroxy-2-methylbenzene]
Conditions | vapor or sublimation pressure
309.22 K | 0.000109 kPa and 0.000107 kPa and 0.000103 kPa
311.2 K | 0.000141 kPa and 0.000136 kPa and 0.000132 kPa
313.12 K | 0.000176 kPa and 0.000172 kPa and 0.000171 kPa
315.21 K | 0.000224 kPa and 0.000217 kPa and 0.000227 kPa
317.12 K | 0.000287 kPa and 0.00028 kPa and 0.000276 kPa
319.2 K | 0.000358 kPa and 0.00035 kPa and 0.000341 kPa
321.19 K | 0.000456 kPa and 0.000446 kPa and 0.000437 kPa
323.12 K | 0.000578 kPa and 0.000559 kPa and 0.000553 kPa
325.21 K | 0.000724 kPa and 0.000694 kPa and 0.000673 kPa
327.17 K | 0.000896 kPa and 0.000883 kPa and 0.000851 kPa
329.11 K | 0.001115 kPa and 0.001099 kPa and 0.001081 kPa

Cc1cc(O)cc(O)c1 [5-methyl-1,3-benzenediol]
Conditions | vapor or sublimation pressure
322.2 K | 0.000157 kPa and 0.000153 kPa
324.16 K | 0.000199 kPa and 0.000196 kPa and 0.000193 kPa
326.1 K | 0.000246 kPa and 0.000245 kPa
328.2 K | 0.000304 kPa and 0.000311 kPa and 0.000303 kPa
330.14 K | 0.000394 kPa and 0.000383 kPa and 0.000378 kPa
332.1 K | 0.000499 kPa and 0.000485 kPa and 0.000482 kPa
334.19 K | 0.000607 kPa and 0.000596 kPa and 0.000591 kPa
336.13 K | 0.000766 kPa and 0.000754 kPa and 0.000734 kPa
338.1 K | 0.000974 kPa and 0.000935 kPa and 0.000932 kPa
